From PMC3749120, “RasGRPs Are Targets of the Anti-Cancer Agent Ingenol-3-Angelate” (PLoS ONE, 2013) come the findings set out here.

In general, Kd refers to the equilibrium constant for the complex coming apart. High values mean lower affinity, low ones higher affinity.

Assay [1] has as its target T1, RasGRP3 (Homo sapiens, UniProt Q8IV61).
T1 construct: full-length
T1 sequence (Q8IV61 1-690): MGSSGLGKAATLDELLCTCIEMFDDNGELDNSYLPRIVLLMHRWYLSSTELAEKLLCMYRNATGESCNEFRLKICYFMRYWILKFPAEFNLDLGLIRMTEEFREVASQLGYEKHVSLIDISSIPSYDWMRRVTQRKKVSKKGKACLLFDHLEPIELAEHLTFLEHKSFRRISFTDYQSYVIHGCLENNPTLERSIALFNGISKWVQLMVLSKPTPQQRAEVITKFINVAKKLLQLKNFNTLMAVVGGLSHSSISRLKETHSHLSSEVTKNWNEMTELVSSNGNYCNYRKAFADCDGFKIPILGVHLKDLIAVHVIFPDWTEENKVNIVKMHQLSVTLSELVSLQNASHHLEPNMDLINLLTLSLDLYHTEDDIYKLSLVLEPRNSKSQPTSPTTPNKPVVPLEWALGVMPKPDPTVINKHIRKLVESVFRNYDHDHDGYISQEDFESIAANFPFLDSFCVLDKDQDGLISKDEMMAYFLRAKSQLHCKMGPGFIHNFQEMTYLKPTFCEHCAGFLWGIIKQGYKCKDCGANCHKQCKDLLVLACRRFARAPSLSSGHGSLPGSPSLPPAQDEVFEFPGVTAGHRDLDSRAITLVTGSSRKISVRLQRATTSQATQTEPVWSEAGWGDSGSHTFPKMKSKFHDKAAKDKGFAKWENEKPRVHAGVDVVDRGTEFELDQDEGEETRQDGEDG
Description: competition radioligand binding with [3H]phorbol […],13-dibutyrate, […]°C.

Assay [2] concerns the target T1, RasGRP3. The assay can be described thus: [3H]PDBu radioligand binding.

In assay [1], `C/C=C(/C)C(=O)O[C@H]1C(C)=C[C@]23C(=O)[C@@H](C=C(CO)[C@@H](O)[C@]12O)[C@H]1[C@@H](C[C@H]3C)C1(C)C` [I3A, Ingenol-3-angelate] displayed a Kd of 0.045 ± 0.005 nM.
Consider `CCCC(=O)O[C@@H]1[C@@H](C)[C@@]2(O)[C@@H](C=C(CO)C[C@]3(O)C(=O)C(C)=C[C@@H]23)[C@@H]2C(C)(C)[C@]12OC(=O)CCC` [PDBu, phorbol 12,13-dibutyrate], for which the Kd in assay [2] stood at 0.42 ± 0.03 nM.
